Read-outs that look alike come from different tables or passages of the source.
Tests used:
[1] = biological target: T1, Ba/F3 cells containing Ros1 wild-type protein (Homo sapiens, UniProt P08922, cells depend on it, form not given); test: Ba/F3-Ros1 cell proliferation assay, wild-type Ros1; type: cell-based, murine; conditions: without IL-3
T1 construct: The background only speaks of 'a number of different unrelated proteins' and names SLC34A2-ROS1 for HCC78 cells
Description: (§1) Ba/F3-Ros1 Cell Proliferation Assay
(§2) This assay was carried out with Ba/F3 cells containing three different versions of Ros1: the wild-type protein, protein with a mutation at the gatekeeper residue (L2026M), and protein with a mutation identified in a tumor from a patient that became resistant to crizotinib (Xalkori®) treatment (G2032R). Compounds were solubilized in 100% DMSO (dimethyl sulfoxide) and sprayed into polystyrene, tissue culture treated 384-well plates. A 50 μl volume of cell culture medium (phenol red free RPMI-1640, 10% FBS (fetal bovine serum), 2 mM L-Glutamine) containing 20000 Ba/F3-Ros1 cells was added to each well and the plates were placed in an incubator at 37° C. and 5% CO2. After 24 hours, 10 μl of Alamar Blue solution (0.5 mM K3Fe(CN)6, 0.5 mM K4Fe(CN)6, 0.15 mM Resazurin and 100 mM Phosphate Buffer) was added to the wells, incubated for 4 hours at 37° C. and 5% CO2 before RFU's (Relative Fluorescence Units) (ex. 540 nm., em. 590 nm.) were measured in a fluorescence plate reader.

[2] = test system: HCC78 non-small cell lung cancer cells; test: HCC78 cell proliferation assay; type: cell-based
Description: HCC78 Cell Proliferation Assay
Approximately 1000 HCC78 non-small cell lung cancer cells in 180 μl of cell culture medium (RPMI-1640, 10% FBS, 2 mM L-Glutamine, 10 mM Hepes, 1 mM sodium pyruvate, 4.5 g/L glucose, 1.5 g/L sodium bicarbonate, 25 μg/ml Gentamycin) were seeded in each well of a 96-well polystyrene, tissue-culture treated plate and incubated at 37° C. and 5% CO2. After 24 hours, compounds were diluted in cell culture medium from which 20 μl was added to the wells containing cells and incubated for 4 days at 37° C. and 5% CO2. A 5 mg/ml solution of the tetrazolium dye MTT was prepared in PBS (phosphate-buffered saline) and 25 μl was added to each well. After 2 hours the medium was removed and replaced by 125 μL of 4/1 DMSO/glycine buffer (0.1M glycine, 0.1M NaCl, pH 10.5) before absorbance was determined at 538 nm.

[3] = biological target: Ba/F3 cells containing Ros1 with a mutation at the gatekeeper residue (L2026M) (Homo sapiens, UniProt P08922, L2026M, cells depend on it, form not given); test: Ba/F3-Ros1 cell proliferation assay, L2026M gatekeeper mutant; type: cell-based, murine; conditions: without IL-3
Description: as §1, §2

[4] = test system: Ba/F3 cells containing Ros1 wild-type protein + IL-3; test: Ba/F3-Ros1 cell proliferation counter-screen, wild-type protein in the presence of 10 ng/ml murine IL-3; type: cell-based; conditions: Mus musculus, BaF3, 24 h, read-out: BaF3-ROS1 + IL3 pIC50 (converted)
Description: as §2
As a counter-screen the same experiment was performed for the wild-type protein in the presence of 10 ng/ml murine IL-3.

Ros1 enzyme = biological target: T2, Ros1 enzyme (Homo sapiens, UniProt P08922); test: Ros1 enzymatic assay; type: biochemical; conditions: Ros1 enzymatic assay; read-out: ROS1 pIC50 (converted)
T2 construct: 0.5 μg/ml Ros1 enzyme
Description: Compounds were spotted onto white 384-well Proxiplate plus plates (Perkin Elmer) to which 5 μl of enzyme mix (0.5 μg/ml Ros1 enzyme, 50 mM Tris-HCl pH7.5, 1 mM EGTA, 10 mM MgCl2, 0.01% Tween-20) and 5 μl of substrate mix (6 μg/ml IRS-Tide [American Peptide Company], 20 μM ATP, 13.33 μCi/ml ATP (adenosine 5′-triphosphate) P^33, 50 mM Tris-HCl pH7.5, 1 mM EGTA (ethylene glycol-bis(2-aminoethylether)-N,N,N′,N′-tetraacetic acid), 10 mM MgCl2, 0.01% Tween-20) were added. After incubation for 120 minutes at room temperature, 10 μl of stop reaction buffer (5 mM EDTA, 50 μM ATP, 0.1% BSA (bovine serum albumin), 0.1% Triton X-100, 50 mM Tris-HCl pH7.5, 1 mM EGTA, 10 mM MgCl2, 0.01% Tween-20) containing 2 mg/ml streptavidin coupled polystyrene imaging beads (Amersham Biosciences) was added and incubated for 15 minutes at room temperature. Plates were centrifuged for 3 minutes at 1500 rpm and signals detected in a LEADseeker imaging system (GE).

[5] = counter-screen, wild-type, 10 ng/ml murine IL-3

T1 sequence (P08922 whole entry, stated change not applied): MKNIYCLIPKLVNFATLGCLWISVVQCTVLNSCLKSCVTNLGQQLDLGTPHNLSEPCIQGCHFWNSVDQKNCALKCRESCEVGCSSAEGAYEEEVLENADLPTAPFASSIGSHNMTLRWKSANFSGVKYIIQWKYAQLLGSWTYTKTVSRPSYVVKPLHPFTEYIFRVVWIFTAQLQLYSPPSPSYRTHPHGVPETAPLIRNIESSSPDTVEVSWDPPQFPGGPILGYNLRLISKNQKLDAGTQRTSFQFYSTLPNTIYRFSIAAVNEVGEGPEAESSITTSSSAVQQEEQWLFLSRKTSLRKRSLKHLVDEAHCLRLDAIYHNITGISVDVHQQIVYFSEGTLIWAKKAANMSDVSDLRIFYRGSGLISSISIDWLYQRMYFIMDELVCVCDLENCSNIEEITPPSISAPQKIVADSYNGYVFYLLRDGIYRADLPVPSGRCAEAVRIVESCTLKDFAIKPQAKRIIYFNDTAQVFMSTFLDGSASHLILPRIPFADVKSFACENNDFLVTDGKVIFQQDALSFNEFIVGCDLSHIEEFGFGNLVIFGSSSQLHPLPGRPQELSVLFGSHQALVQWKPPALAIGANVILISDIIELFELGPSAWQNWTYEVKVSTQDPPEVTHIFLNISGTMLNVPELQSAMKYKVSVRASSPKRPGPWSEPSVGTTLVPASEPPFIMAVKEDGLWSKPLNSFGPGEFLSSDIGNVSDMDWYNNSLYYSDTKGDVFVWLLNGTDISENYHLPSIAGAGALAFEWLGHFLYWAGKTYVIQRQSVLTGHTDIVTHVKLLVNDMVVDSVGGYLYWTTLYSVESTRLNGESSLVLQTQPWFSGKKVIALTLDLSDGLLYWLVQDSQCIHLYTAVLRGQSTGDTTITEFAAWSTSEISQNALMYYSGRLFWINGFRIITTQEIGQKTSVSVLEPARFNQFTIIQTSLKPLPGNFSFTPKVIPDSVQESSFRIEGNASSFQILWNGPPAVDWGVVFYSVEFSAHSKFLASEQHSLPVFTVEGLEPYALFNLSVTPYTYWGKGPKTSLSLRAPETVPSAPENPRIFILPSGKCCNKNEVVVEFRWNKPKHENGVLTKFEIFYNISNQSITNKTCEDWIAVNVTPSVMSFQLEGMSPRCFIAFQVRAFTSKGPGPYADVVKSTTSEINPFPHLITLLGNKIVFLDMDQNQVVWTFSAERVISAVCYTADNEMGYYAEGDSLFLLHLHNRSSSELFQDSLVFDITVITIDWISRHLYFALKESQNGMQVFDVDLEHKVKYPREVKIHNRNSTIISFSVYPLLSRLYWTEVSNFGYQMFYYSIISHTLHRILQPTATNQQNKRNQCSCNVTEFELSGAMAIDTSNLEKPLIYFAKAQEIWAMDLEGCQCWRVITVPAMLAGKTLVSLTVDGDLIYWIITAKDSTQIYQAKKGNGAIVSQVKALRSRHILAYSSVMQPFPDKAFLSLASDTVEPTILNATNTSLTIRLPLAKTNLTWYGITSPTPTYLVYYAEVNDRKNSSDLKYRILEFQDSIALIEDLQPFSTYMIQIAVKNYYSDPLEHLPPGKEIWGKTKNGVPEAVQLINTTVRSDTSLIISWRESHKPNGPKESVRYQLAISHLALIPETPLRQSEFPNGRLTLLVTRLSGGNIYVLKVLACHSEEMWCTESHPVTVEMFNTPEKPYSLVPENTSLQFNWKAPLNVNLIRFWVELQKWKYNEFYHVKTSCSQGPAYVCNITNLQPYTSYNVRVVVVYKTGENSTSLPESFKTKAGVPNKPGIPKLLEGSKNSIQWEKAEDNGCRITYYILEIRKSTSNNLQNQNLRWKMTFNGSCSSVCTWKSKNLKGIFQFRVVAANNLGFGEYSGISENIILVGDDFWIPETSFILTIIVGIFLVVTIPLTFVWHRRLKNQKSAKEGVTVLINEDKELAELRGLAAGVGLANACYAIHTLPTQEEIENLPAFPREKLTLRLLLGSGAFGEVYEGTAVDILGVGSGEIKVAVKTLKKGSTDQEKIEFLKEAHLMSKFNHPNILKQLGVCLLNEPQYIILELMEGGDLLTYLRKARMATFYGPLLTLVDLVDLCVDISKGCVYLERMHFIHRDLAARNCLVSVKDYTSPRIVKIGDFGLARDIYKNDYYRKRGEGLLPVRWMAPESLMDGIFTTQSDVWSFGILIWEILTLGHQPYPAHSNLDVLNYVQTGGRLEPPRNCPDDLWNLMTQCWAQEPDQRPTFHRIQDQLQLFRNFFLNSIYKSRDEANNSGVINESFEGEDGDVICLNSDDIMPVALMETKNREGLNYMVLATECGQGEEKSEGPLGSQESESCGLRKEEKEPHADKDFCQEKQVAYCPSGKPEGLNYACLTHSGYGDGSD
T2 sequence (P08922 28-2347): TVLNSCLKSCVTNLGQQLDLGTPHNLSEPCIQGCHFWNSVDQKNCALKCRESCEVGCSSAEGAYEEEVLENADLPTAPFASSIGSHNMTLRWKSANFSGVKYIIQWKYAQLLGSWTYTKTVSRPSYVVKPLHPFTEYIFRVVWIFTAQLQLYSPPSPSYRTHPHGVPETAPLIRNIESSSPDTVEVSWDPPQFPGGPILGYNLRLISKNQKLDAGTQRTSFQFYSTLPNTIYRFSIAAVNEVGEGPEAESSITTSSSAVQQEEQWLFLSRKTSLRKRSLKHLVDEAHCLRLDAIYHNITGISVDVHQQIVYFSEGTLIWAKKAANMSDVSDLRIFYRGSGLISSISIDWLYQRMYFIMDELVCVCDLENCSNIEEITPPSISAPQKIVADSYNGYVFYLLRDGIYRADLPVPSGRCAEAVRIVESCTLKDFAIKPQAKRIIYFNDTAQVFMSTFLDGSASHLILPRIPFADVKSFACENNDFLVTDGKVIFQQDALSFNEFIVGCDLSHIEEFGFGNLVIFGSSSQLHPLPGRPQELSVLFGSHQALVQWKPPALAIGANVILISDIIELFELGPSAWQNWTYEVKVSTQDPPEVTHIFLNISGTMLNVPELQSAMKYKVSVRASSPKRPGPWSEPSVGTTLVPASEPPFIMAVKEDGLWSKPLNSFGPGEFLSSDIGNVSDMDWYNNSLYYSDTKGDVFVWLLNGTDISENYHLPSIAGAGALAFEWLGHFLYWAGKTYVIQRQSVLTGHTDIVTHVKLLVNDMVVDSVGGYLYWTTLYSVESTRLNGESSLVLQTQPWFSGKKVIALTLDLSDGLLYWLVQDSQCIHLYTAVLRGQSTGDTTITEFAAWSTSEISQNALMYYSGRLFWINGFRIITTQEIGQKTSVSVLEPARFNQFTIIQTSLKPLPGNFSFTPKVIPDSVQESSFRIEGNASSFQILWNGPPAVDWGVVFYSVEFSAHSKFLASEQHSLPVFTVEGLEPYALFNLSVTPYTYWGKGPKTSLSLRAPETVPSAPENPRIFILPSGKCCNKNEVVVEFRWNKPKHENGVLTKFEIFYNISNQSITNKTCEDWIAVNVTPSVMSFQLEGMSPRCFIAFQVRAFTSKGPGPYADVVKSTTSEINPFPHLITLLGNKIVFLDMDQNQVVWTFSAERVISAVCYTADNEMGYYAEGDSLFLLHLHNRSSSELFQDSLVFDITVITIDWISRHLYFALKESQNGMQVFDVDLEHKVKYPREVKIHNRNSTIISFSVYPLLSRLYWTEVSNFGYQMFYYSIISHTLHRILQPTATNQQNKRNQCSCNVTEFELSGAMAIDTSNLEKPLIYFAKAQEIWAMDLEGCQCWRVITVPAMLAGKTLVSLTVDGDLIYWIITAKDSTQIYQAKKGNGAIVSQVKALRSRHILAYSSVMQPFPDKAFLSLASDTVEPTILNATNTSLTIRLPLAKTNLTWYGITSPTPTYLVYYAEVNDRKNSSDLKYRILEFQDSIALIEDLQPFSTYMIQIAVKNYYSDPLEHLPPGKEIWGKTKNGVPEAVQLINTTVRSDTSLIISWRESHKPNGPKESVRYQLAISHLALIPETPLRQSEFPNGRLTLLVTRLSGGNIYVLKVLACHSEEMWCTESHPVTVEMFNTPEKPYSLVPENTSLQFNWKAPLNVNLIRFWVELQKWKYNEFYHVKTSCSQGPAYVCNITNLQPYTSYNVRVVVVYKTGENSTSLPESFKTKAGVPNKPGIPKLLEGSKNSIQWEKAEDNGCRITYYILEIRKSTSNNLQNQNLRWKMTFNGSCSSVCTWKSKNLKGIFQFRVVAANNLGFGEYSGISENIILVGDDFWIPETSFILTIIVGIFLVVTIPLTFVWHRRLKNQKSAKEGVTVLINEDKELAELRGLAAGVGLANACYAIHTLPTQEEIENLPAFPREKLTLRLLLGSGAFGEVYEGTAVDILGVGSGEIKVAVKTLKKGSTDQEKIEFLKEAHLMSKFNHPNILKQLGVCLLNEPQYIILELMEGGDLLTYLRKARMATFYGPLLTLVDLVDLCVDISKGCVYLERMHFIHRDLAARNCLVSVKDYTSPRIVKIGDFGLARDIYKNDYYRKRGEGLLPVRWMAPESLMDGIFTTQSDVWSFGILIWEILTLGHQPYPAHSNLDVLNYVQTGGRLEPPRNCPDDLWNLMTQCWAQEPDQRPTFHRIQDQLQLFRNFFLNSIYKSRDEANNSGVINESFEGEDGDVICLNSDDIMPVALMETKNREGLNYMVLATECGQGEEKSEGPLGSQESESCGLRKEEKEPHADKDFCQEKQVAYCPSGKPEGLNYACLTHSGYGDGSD
Sequence of Ba/F3 cells containing Ros1 with a mutation at the gatekeeper residue (L2026M) (P08922 whole entry L2026M, form open): as the sequence (P08922 whole entry, stated change not applied) above, with L2026M counted along it

Compound | BaF3-ROS1-IL3 pIC50 [1] | EC50 ([2]; Homo sapiens, HCC78, 96 h, read-out: HCC-78 PROL pEC50 (converted)) | Ba/F3 Ros1 L2026M (-IL-3) pIC50 [3] | CC50 [4] | melting point | IC50 (Ros1 enzyme) | CC50 [4, 5] | HCC-78 PROL pEC50 ([2]; HCC78 cells, 4 days, MTT)
CC(C)c1ccc(COc2ccc(-c3c(-c4ccncc4)nn4c3C(=O)N(CCN(C)C)CC4)cc2)cc1 [Compound 61] | 6.3 | 631 nM | 5.9 | > 10000 nM | – | – | – | –
[2H]C([2H])(O)C([2H])([2H])N1CCn2nc(-c3ccncc3)c(-c3ccc(OCc4ccc(C(C)C)cc4)cc3)c2C1=O [Compound 67] | 7.9 | – | 7.1 | > 10000 nM | 179 °C | 25.1 nM | – | –
CC(C)c1ccc(COc2ccc(-c3c(-c4ccncc4)nn4c3C(=O)N(C(=O)OC(C)(C)C)CC4)cc2)cc1 [Compound 70] | 6.4 | – | 6.1 | – | 147 °C | 3160 nM | > 10000 nM | –
CC(C)c1ccc(COc2ccc(-c3c(-c4ccncc4)nn4c3C(=O)N(CCO)CC4)cc2)cc1CCO [Compound 83] | 7.6 | – | 7.2 | > 10000 nM | 176 °C | 20 nM | – | –
CC(C)c1ccc(COc2ccc(-c3c(-c4ccncc4)nn4c3C(=O)N(CCO)CC4)cc2)c(F)c1F [Compound 100] | 6.9 | – | 6.3 | > 10000 nM | 172 °C | 200 nM | – | –
CC(C)c1ccc(COc2ccc(-c3c(-c4ccncc4)nn4c3C(=O)N(CC(O)CO)CC4)cc2)c(F)c1F (stereo not shown) [Compound 101] | 6.7 | – | 6.4 | – | 192 °C | 398 nM | > 10000 nM | –
CC(C)c1ccc(COc2ccc(-c3c(-c4ccncc4)nn4c3C(=O)N(CC(O)CO)CC4)cc2)c(F)c1F (stereo not shown) [Compound 102] | 6.7 | – | 6.4 | – | 191 °C | 794 nM | – | –
N#Cc1ccc(COc2ccc(-c3c(-c4ccncc4)nn4c3C(=O)NCC4)cc2)cc1Cl [Compound 141] | 6.4 | – | – | > 10000 nM | 257 °C | 631 nM | – | –
CC(C)c1ccc(C(C)Oc2ccc(-c3c(-c4ccncc4)nn4c3C(=O)NCC4)cc2)cc1 (stereo not shown) [Compound 143] | 6.4 | – | 6.0 | 5010 nM | 217 °C | 1000 nM | – | –
CC(C)c1ccc(C(C)Oc2ccc(-c3c(-c4ccncc4)nn4c3C(=O)N(CCO)CC4)cc2)cc1 (stereo not shown) [Compound 145] | 5.8 | – | 5.1 | – | – | 3160 nM | – | <5.5
COc1ccc(COc2ccc(-c3c(-c4ccncn4)nn4c3C(=O)NCC4)cc2)cc1 [Compound 157] | 6.1 | – | – | > 10000 nM | 264 °C | 1000 nM | – | –
O=C1NCCn2nc(-c3ccncn3)c(-c3ccc(OCc4ccc(C5CC5)cc4)cc3)c21 [Compound 166] | 6.9 | – | – | – | 268 °C | 63.1 nM | > 10000 nM | –
O=C1NCCn2nc(-c3ccncn3)c(-c3ccc(OCc4ccc(C5CC5)nc4)cc3)c21 [Compound 168] | 6.5 | – | 6.2 | > 10000 nM | 254 °C | 398 nM | – | –
O=C1c2c(-c3ccc(OCc4ccc(C5CC5)nc4)cc3)c(-c3ccncn3)nn2CCN1CCO [Compound 169] | 6.2 | – | 5.6 | > 10000 nM | 143 °C | 1000 nM | – | –
CC(C)c1ccc(COc2ccc(-c3c(-c4cc[n+]([O-])cc4)nn4c3C(=O)NCC4)cc2)cc1 [Compound 170] | 5.2 | – | – | – | 227 °C | 6310 nM | > 10000 nM | –
CC(C)NC(=O)CN1CCn2nc(-c3ccncc3)c(-c3ccc(OCc4ccc(C(C)C)cc4)cc3)c2C1 [Compound 178] | 6.6 | – | – | – | 188 °C | 200 nM | > 10000 nM | –
c1cc(-c2nn3c(c2-c2ccc(OCc4ccc(C5CC5)nc4)cc2)CNCC3)ccn1 [Compound 186] | 6.2 | – | – | – | 195 °C | 1000 nM | > 10000 nM | –
CC1CNCc2c(-c3ccc(OCc4ccc(C5CC5)cc4)cc3)c(-c3ccncc3)nn21 (stereo not shown) [Compound 197] | 5.8 | – | – | – | 153 °C | 794 nM | > 10000 nM | –
CC(C)c1ccc(COc2ccc(-c3c(-c4ccncc4)nn4c3C(=O)N(CCO)CC4)c(F)c2)cc1CCO [Compound 205] | 7.8 | – | 7.5 | > 10000 nM | 151 °C | 7.94 nM | – | –
CC(C)c1ccc(COc2ccc(-c3c(-c4ccncc4)nn4c3CN(CCN)CC4)cc2)cc1 [Compound 210] | 6.3 | – | – | – | 197 °C | 63.1 nM | 6310 nM | –
CC(C)c1ccc(COc2ccc(-c3c(-c4ccncc4)nn4c3C(=O)N(C)CC4)cn2)cc1 [Compound 211] | 7.3 | – | 7.3 | – | 57 °C | 31.6 nM | > 10000 nM | –
CC(C)c1ccc(COc2ccc(-c3c(-c4ccncc4)nn4c3C(=O)N(CCS(C)(=O)=O)CC4)cn2)cc1 [Compound 213] | 7.0 | – | 6.4 | – | 200 °C | 100 nM | > 10000 nM | –
CC(C)c1ccc(COc2ccc(-c3c(-c4ccncn4)nn4c3CNCC4)cc2)cc1 [Compound 219] | 6.0 | – | – | – | 150 °C | 1260 nM | > 10000 nM | –
CC(C)c1ccc(COc2ccc(-c3c(-c4ncnc5[nH]ccc45)nn4c3C(=O)NCC4)cc2)cc1 [Compound 222] | 7.0 | – | – | > 10000 nM | 238 °C | 200 nM | – | –
COc1ncc(COc2ccc(-c3c(-c4ccncc4)nn4c3C(=O)NCC4)cc2)cn1 [Compound 229] | <5 | – | – | – | 248 °C | > 10000 nM | > 10000 nM | –
N#Cc1ncc(COc2ccc(-c3c(-c4ccncc4)nn4c3C(=O)NCC4)cc2)cc1Cl [Compound 230] | 5.2 | – | – | – | 277 °C | > 10000 nM | > 10000 nM | –
CC(C)c1ccc(C2Oc3ccc(-c4c(-c5ccncc5)nn5c4C(=O)NCC5)cc3NC2=O)cc1 (stereo not shown) [Compound 231] | 6.4 | – | 5.7 | – | 291 °C | 794 nM | > 10000 nM | –
CC(C)c1ccc(COc2ccc(-c3c(-c4ccncc4)nn4c3CNC(=O)C4)cc2)cc1 [Compound 237] | 6.8 | – | – | > 10000 nM | 281 °C | 794 nM | – | –

Source: patent US10280170B2, “Substituted 4,5,6,7-tetrahydro-pyrazolo[1,5-a]pyrazine derivatives and 5,6,7,8-tetrahydro-4H-pyrazolo[1,5-a][1,4]diazepine derivatives as Ros1 inhibitors” (Janssen Pharmaceutica NV, priority 2014, dated 2019)
